Experimental data from patent US20190000079A1, “Methods and Formulation for Treatment of Nuts, Seeds, Grains, Cereals, Plant Growth Media, and Plants” (Lipotec Laboratories, LLC, priority 2015, published 2019).

Key:
Test in all cases: Growth experiment, coated vs uncoated seeds planted in soil
[1] = system: soybeans; assay type: in vivo, soybean
Description: (§1) Groups of coated and uncoated soybeans, corn, sunflower, and turfgrass were planted in soil and monitored for germination.

[2] = system: corn; assay type: in vivo
Description: as §1

[3] = system: sunflower; assay type: in vivo
Description: as §1

Structure (SMILES): COc1cc(/C=C/C(=O)CC(=O)/C=C/c2ccc(O)c(OC)c2)ccc1O [curcumin, Curcumin]
- germination time of coated seeds ([1]; soybean seeds coated with DMSO and curcumin, planted in soil, same as uncoated): 2 days
- height and diameter, coated vs uncoated ([1]; soybean, after 3 weeks): equal height and diameter
- germination time of coated seeds ([2]; corn seeds coated with DMSO and curcumin, planted in soil, same as uncoated): 2 days
- height and diameter, coated vs uncoated ([2]; corn, after 3 weeks): equal height and diameter
- germination time of coated seeds ([3]; sunflower seeds coated with DMSO and curcumin, planted in soil, same as uncoated): 2 days
- height and diameter, coated vs uncoated ([3]; sunflower, after 3 weeks): equal height and diameter
